Measurements published in PMC9794991, “Evaluation of analogs of mutacin 1140 in systemic and cutaneous methicillin-resistant Staphylococcus aureus infection models in mice” (Frontiers in Microbiology, 2022).
Converted amounts (≈) assume the structure as drawn. “And” between values parts separate entries of the source, which are not always exact repeats. Equal entries are not always repeated. Structures can show the parent of a compound that is named as a salt. Where two headings read alike, the source gives them in different places.

Key:
[1] = system: S. aureus ATCC33591 skin infection; assay: Intravenous treatment of an in vivo MRSA acute skin infection; parameters: species or system BALB/c mice
Procedure: Mice were acclimatized to the environment for at least 7 days before initiating experiments. After shaving the hair on the dorsum of the mice, a 50 μl suspension of S. aureus ATCC33591 in PBS, containing 1.5 × 10^7 CFUs, was injected subcutaneously (subq). No bleeding was observed during all injections. […] Mice were separated into four groups (n = 8 for the treatment groups and n = 6 for the control). […] The last group received the no-drug vehicle control (PBS with 5% DMSO). Weights of mice were measured at least once per day, while behavior and the wounds were monitored multiple times per day. Mice were sacrificed approximately 24-h after the last i.v. treatment (Day 6; D6). Dermal tissues at the infected sites were sampled and homogenized in sterile PBS. The homogenates were serially diluted and plated on THyex agar for determining CFUs.

[2] = system: S. aureus ATCC 33591 (MRSA); assay: MIC in broth (CLSI M07-A8) against MRSA 33591; type: cell-based, Staphylococcus aureus
Procedure: (§1) Preparation of the antimicrobial agent and bacterial inoculum for MICs was performed by following the method described by the Clinical and Laboratory Standards Institute (CLSI; M07-A8; [CLSI, 2018]) and as previously reported by our group ([Chen et al., 2013]; [Escano et al., 2017]; [Geng and Smith, 2018]). […] A single colony from an overnight culture of S. aureus was inoculated in 10 ml of THyex broth (30 g/L Todd Hewitt broth, 3 g/L yeast extract). The inoculum was placed in a shaking incubator at 37°C and 280 rpm and grown to an OD600 of 0.6–0.8. The culture broth was then diluted to an OD600 of 0.132, after which a 20-fold dilution in fresh broth was performed resulting in a ~5 × 10^5 CFU/ml cell density. Mu1140 and Mu1140 analogs were solubilized in dimethyl sulfoxide (DMSO) at a concentration of 1 mg/ml as the stock solution. […] The same volume of DMSO was added to all test samples including the no-drug control. The cultures were placed in a shaking incubator at 37°C and 200 rpm (Stuart orbital incubator SI500). A 100 μl sample from each culture was taken at each time point of 0, 0.25, 0.5, 0.75, 1, 1.5, 2, 4, 8, 18, and 24 h and was serially diluted in fresh medium before being spread on THyex agar plates (30 g/L Todd Hewitt broth, 3 g/L yeast extract, 15 g/L agar) for determining the CFUs. The plates were allowed to grow for 24 h at 37°C before the colony-forming units (CFUs) were counted. The CFU/ml for each time-point at each drug concentration was determined using at least two independent cultures. Plates having 30 to 300 colonies were used for CFU measurements.

[3] = system: S. aureus ATCC33591 skin infection; assay: Subcutaneous treatment of subcutaneous MRSA skin infection (Trial 2); type: in vivo, BALB/c mice; settings: three times per day for 3 days from 48 h post-infection, n = 8
Procedure: Trial 2: In this trial, the infection model was performed following methods that were previously reported ([Guo et al., 2013]; [Dejani et al., 2016]). […] Mice were acclimatized to the environment for at least 7 days before initiating experiments. After shaving the hair on the dorsum of the mice, a 50 μl suspension of S. aureus ATCC33591 in PBS, containing 1.5 × 10^7 CFUs, was injected subq (D0). As noted in trial 1, no bleeding was observed during all injections. […] Mice were separated into four groups (n = 8 for treatment and no-drug vehicle control groups; D2). […] The last group received the no-drug vehicle control (sterile water with 20% DMSO). Treatments were administered three times per day to the mice through a 3-point subq injection around the scab with the needle pointed toward the center of the wound. Weights of mice were measured at least once per day, while behavior and the wound sites were monitored multiple times per day. Mice were sacrificed approximately 24-h after the last subq treatment (D6). Dermal tissues at the infected sites were sampled and homogenized in sterile PBS. The homogenates were serially diluted and plated on THyex agar for determining CFUs.

[4] = system: clinical MRSA isolates; assay: MIC in broth against a panel of clinical MRSA isolates; type: cell-based; settings: Staphylococcus aureus
[5] = system: MRSA (S. aureus ATCC 33591) systemic infection; assay: In vivo MRSA systemic infection model (survival); settings: single 10 mg/kg i.v. dose 1 h post-infection
Procedure: The vehicle (saline with 15% DMSO) served as the no-drug control group of mice. Each mouse was monitored every 4 h during the first 2 days post-infection (day 0 to day 2), and every 8 h from day 2 to day 5.

[6] = system: S. aureus ATCC 33591; assay: Time-kill study (kill kinetics); type: cell-based, Staphylococcus aureus
Procedure: as §1

[7] = system: S. aureus ATCC TCH1516 skin infection; assay: Topical treatment of incision MRSA skin infection (Trial 1); type: in vivo, BALB/c mice; settings: for Group mean (±SE) of log CFU/infection site: 10 mg/kg/day topical, twice daily for 6 days from 24 h post-infection, n = 6, vehicle control 5.33 ± 0.64
Procedure: Trial 1: In this trial, the infection model was performed following methods that were previously reported ([Kugelberg et al., 2005]; [Guo et al., 2013]; [Simonetti et al., 2020]). […] Seven groups (n = 6 mice/group) were acclimatized to the environment for at least 7 days before the start of the experiment. Once the hair on the dorsum of the mice was shaved, a 1 cm incision was made and a 50 μl suspension of S. aureus ATCC TCH1516 in PBS, containing 2 × 10^7 CFUs, was applied directly to the incision. Mice were housed individually until inoculum dried at the incision site (Day (D) 0). Approximately 24 h later (D1), treatment was applied topically twice daily for 6 days. […] Another group received the no-drug vehicle control (0.6% noble agar in citrate buffer). Weights of mice were measured at least once per day, while behavior and the wounds were monitored multiple times per day. Mice were sacrificed 1 day after the last topical treatment (D7). Dermal tissues at the infected sites were sampled and homogenized in sterile PBS. The homogenates were serially diluted and plated on THyex agar for determining CFUs.

[8] = Staphylococcus aureus, MRSA 33591, in broth, read-out: MIC
[9] = 10 mg/kg/day i.v. for 5 days, n = 8

daptomycin was tested, and the “effect on bacterial load at the lesion site” value ([1]; 25 mg/kg i.v. dose, same experimental conditions, data not shown) was “no impact on the bacterial load”.

In the case of CC(=O)NC[C@H]1CN(c2ccc(N3CCOCC3)c(F)c2)C(=O)O1 [Linezolid, linezolid], the MIC [2, 8] was 1 µg/mL (≈ 2.96 µM), the “log reduction in CFUs (mean difference to vehicle control)” value ([3]; 75 mg/kg/day subq) was 0.6 log and the “log reduction in CFUs (mean difference to vehicle control)” value ([3]; 75 mg/kg/day subq, listed as linezolid) was 0.60 log.

Molecule CN[C@H](CC(C)C)C(=O)N[C@H]1C(=O)N[C@@H](CC(N)=O)C(=O)N[C@H]2C(=O)N[C@H]3C(=O)N[C@H](C(=O)N[C@H](C(=O)O)c4cc(O)cc(O)c4-c4cc3ccc4O)[C@H](O)c3ccc(c(Cl)c3)Oc3cc2cc(c3O[C@@H]2O[C@H](CO)[C@@H](O)[C@H](O)[C@H]2O[C@H]2C[C@](C)(N)[C@H](O)[C@H](C)O2)Oc2ccc(cc2Cl)[C@H]1O [Vancomycin, Vancomycin hydrochloride] has an MIC ([4]; MRSA / USA300, strain USA300, in broth) of 2 µg/mL, an MIC ([4]; MRSA, strain 602, in broth) of 2 µg/mL and an MIC ([4]; MRSA, strain 611, in broth) of 2 µg/mL. For the same molecule, the MIC ([4]; MRSA, strain 616, in broth) was 2 µg/mL, the MIC ([4]; MRSA, strain 631, in broth) was 2 µg/mL and the MIC ([4]; MRSA, strain 640, in broth) was 1 µg/mL. It also gave an MIC ([4]; MRSA, strain 641, in broth) of 2 µg/mL, an MIC ([4]; MRSA, strain 644, in broth) of 2 µg/mL and an MIC ([4]; MRSA, strain 30476, in broth) of 2 µg/mL. For the same molecule, the MIC ([4]; MRSA, strain 31225, in broth) was 1 µg/mL, the MIC ([4]; MRSA, strain 31258, in broth) was 1 µg/mL and the MIC ([4]; MRSA, strain CA347, in broth) was 2 µg/mL. It also gave an MIC ([4]; MRSA, strain CA513, in broth) of 4 µg/mL, an MIC ([4]; MRSA, strain CA-409, in broth) of 2 µg/mL and an MIC ([4]; MRSA, strain CO-34, in broth) of 2 µg/mL. It also gave an MIC ([4]; MRSA, strain GA442, in broth) of 4 µg/mL, an MIC ([4]; MRSA, strain HFH30364, in broth) of 2 µg/mL and an MIC ([4]; MRSA, strain HFH30522, in broth) of 1 µg/mL. The MIC ([4]; MRSA, strain N315, in broth) was 2 µg/mL, the MIC ([4]; MRSA, strain SAEH06, in broth) was 0.5 µg/mL and the “survival at 12 h post-infection” value [5] was 75.0%. The “survival at 24 h post-infection” value [5] was 50%, the MIC ([2]; Staphylococcus aureus) was 2 µg/mL and the “reduction in viable cells” value ([6]; 0.5× MIC) was “negligible differences between the vehicle control and the treatment groups”. The “time needed for a 2-log reduction in CFUs” value ([6]; 1× and 2× MIC) was 8 hours, the “time until viable cell counts dropped below the detection limit” value ([6]; 2× MIC) was “more than 8 h” and the “viable cells at 18 and 24 h post-administration” value ([6]; 2× MIC) was “no viable cells”. The “effect on bacterial load at the skin lesion site” value (“effect … at the skin lesion site” for short) [1, 9] was “did not have any significant effect on the bacterial load” and the “effect … at the skin lesion site” value ([1]; 10 mg/kg/day i.v. for 5 days, n = 8, listed as vancomycin) was “did not show any statistical significance to vehicle control”.

In the case of mutacin 1140 [Mu1140], the “survival at 12 h post-infection” value [5] was 100%, the “survival at 24 h post-infection” value [5] was 83.3% and the MIC ([2]; MRSA 33591, in broth) was 0.5 µg/mL. For the same molecule, the “MIC compared to fusidic acid and linezolid” value ([2]; S. aureus 33591) was “two-fold lower”, the “MIC compared to vancomycin” value ([2]; S. aureus 33591) was “four-fold lower” and the “log reduction in CFUs (mean difference to vehicle control)” value ([3]; 25 mg/kg/day subq) was 0.78 log. The “effect … at the skin lesion site” value [1, 9] was “statistically significant reduction in CFUs”, the “mean difference in bacteria load to the vehicle control group” value ([1]; 10 mg/kg/day i.v. for 5 days, Cohen's d = 1.27, p = 0.0265) was 0.61 log CFU and the “bacteria count at the lesion” value ([1]; 10 mg/kg/day i.v. twice daily for 5 days from 48 h post-infection, n = 8, vehicle control 7.82) was 7.21 log CFU. The “Group mean (±SE) of log CFU/infection site” value [7] was 5.23 log CFU/infection site and 5.23 ± 0.93 log CFU/infection site.

CC(=O)O[C@H]1C[C@@]2(C)[C@@H](C[C@@H](O)[C@H]3[C@@]4(C)CC[C@@H](O)[C@@H](C)[C@@H]4CC[C@@]32C)/C1=C(\CCC=C(C)C)C(=O)O [Fusidic acid] was tested, and the MIC [2, 8] was 1 µg/mL (≈ 1.94 µM), the “log reduction in bacterial load compared to the vehicle control group” value ([7]; 10 mg/kg/day topical for 6 days, not statistically significant) was 2.17 log and the “Group mean (±SE) of log CFU/infection site” value [7] was 3.16 ± 0.50 log CFU/infection site. For the same molecule, the “Group mean (±SE) of log CFU/infection site” value ([7]; listed as fusidic acid) was 3.16 log CFU/infection site.
